{
  "source": "patent US20240277684A1",
  "about": "“BLOCKADE OF CHEMOKINE (C-C MOTIF) RECEPTOR 2 DURING FLUID RESUSCITATION” (University of South Florida, priority 2022, published 2024)",
  "tested_on": "hemorrhagic shock",
  "assay": "Example 1 second series: 30 min hemorrhagic shock, fluid resuscitation until t=300 min",
  "type": "in vivo, rat",
  "procedure": "In vivo animal experiments. All procedures were performed in accordance with the National Institutes of Health Guidelines for Use of Laboratory Animals and were approved by the University of South Florida Institutional Animal Care and Use Committeee (IS00008139). Male Sprague-Dawley rats (300-400 g, Envigo, Indianapolis, IN, USA). were anesthetized with 1.7% isoflurane via nose-cone inhalation with the SomnoSuite anesthesia system (Kent Scientific, Torrington, CT, USA). […] The left femoral artery was isolated and cannulated with a 24-gauge peripheral intravenous catheter to allow for blood withdrawal, hemodynamic monitoring, drug administration, and fluid resuscitation. Hemodynamics were continuously monitored with the SurgivetV6400 blood pressure monitor (Med-Electronics, Beltsville, MD, USA), and blood pressures and heart rate were recorded at 1-10 min intervals. All animals were observed over a 10 min period to ensure hemodynamic stability before start of the experiments. All experiments were performed randomized in alternating order.\nTo test the effects of INCB3284 and Maraviroc after HS, a Wiggers fixed pressure hemorrhage and fluid resuscitation model was used as described (Babu F S, et al., Chemokine (C-X-C motif) receptor 4 regulates lung endothelial barrier permeability during resuscitation from hemorrhagic shock. Physiol Res 2019; 68(4):675-679; Nassoiy S P, et al., Effects of the Kv7 voltage-activated potassium channel inhibitor linopirdine in rat models of haemorrhagic shock. Clin Exp Pharmacol Physiol 2018; Nassoiy S P, et al., Kv7 voltage-activated potassium channel inhibitors reduce fluid resuscitation requirements after hemorrhagic shock in rats. J Biomed Sci 2017; 24(1):8; Bach H Ht, et al., Proteasome inhibition prolongs survival during lethal hemorrhagic shock in rats. J Trauma Acute Care Surg 2013; 74(2):499-507; Bach H Ht, et al., Chemokine (C-X-C motif) receptor 4 and atypical chemokine receptor 3 regulate vascular alpha(1)-adrenergic receptor function. Mol Med 2014; 20:435-447), with slight modifications. In brief, rats were hemorrhaged to a mean arterial blood pressure (MAP) of less than or equal to 30 mmHg for a period of 30 minutes. At the end of the HS period (t=30 min), animals were injected with either vehicle (1 mL LR) or drug in 1 mL LR, followed by fluid resuscitation with 1 mL bolus injections of LR to maintain a systolic blood pressure (SBP) of 90 mmHg or a MAP of 60 mmHg. To avoid fluid overload, bolus injections of LR were limited to 1 mL/min. In the first series of experiments, animals received 1 mL of LR (n=9), 1.1 μmol/kg (n=4) or 5.5 μmol/kg (n=5) INCB3284 in 1 mL LR or […] Maraviroc (n=3) in 1 mL LR at t=30 min. Animals were then resuscitated until t=90 min. At t=0, 15, 30, 60 and 90 min, blood samples were obtained, and plasma prepared. Samples were stored at −70° C. until further processing. At t=90 min, animals were euthanized (isoflurane inhalation, bilateral pneumothorax).\nIn the second series of experiments, animals received 1 mL of LR (n=10) or 5 μmol/kg INCB3284 in 1 mL LR (n=8) at t=30 min. Animals were resuscitated until t=300 min. Blood samples were obtained for arterial blood gas analyses and measurements of routine laboratory parameters at time points t=0, 30, 90, 150, 210, 270 and 300 min. Death was defined as asystole or loss of a pulse pressure. At the end of the experiments, surviving animals were euthanized as described before. In animals that survived until t=300 min, a gross necropsy was performed after euthanasia, and tissue from lung, small intestine, and colon was collected for measurements of wet-weight/dry-weight ratios.\nArterial blood gases and routine laboratory parameters. Arterial blood gases, electrolytes, creatinine, lactate, hematocrit and hemoglobin were analyzed using the Element point of care veterinary blood gas, electrolyte and critical care analyzer (Cuattro Veterinary USA, Loveland, CO, USA).\nWet-weight/dry-weight ratios.",
  "key": {"[1]": {"settings": "5 μmol/kg, animals that survived until t=300 min"}, "[2]": {"settings": "5 μmol/kg, animals that survived until t=300 min, vs vehicle"}},
  "data": [
    {"compound": "COc1ccc([C@]2(O)CC[C@@H](N3CC[C@@H](NC(=O)CNC(=O)c4cccc(C(F)(F)F)c4)C3)CC2)cn1", "note": "[INCB3284]", "values": [
      {"measurement": "colon wet weight/dry weight ratios, difference to vehicle", "setting": "[1]", "result": "did not reach statistical significance"},
      {"measurement": "small bowel wet weight/dry weight ratios, difference to vehicle", "setting": "[1]", "result": "did not reach statistical significance"},
      {"measurement": "lung wet weight/dry weight ratios", "setting": "[2]", "result": "significantly reduced"},
      {"measurement": "wet weight/dry weight ratios of all tissues combined", "setting": "[2]", "result": "significantly reduced"},
      {"measurement": "animals demonstrating the beginning of hemodynamic decompensation", "setting": "5 μmol/kg, n=8, p<0.01 vs. vehicle", "result": "None"},
      {"measurement": "mortality", "setting": "5 μmol/kg, until t=300 min, p<0.05", "result": 0, "unit": "%"},
      {"measurement": "median survival time", "setting": "5 μmol/kg, p<0.05 vs. vehicle", "result": "> 300", "unit": "min"},
      {"measurement": "reduction of average fluid requirements", "setting": "single dose 5 μmol/kg at t=30 min, until t=300 min, vs vehicle", "result": "62±6", "unit": "%"},
      {"measurement": "average fluid requirements", "setting": "single dose 5 μmol/kg at t=30 min, until t=300 min, p<0.05", "result": "61.9 ± 10", "unit": "mL/kg"}
    ]}
  ]
}
